Test results: US7517884B2 (Kalypsys Inc., priority 1998, dated 2009)

Key:
Format in all cases: cell-based, murine and human
Conditions in all cases: GAL4-PPAR LBD chimera
PPAR-gamma = target: T1, PPAR-gamma (UniProt P37231); assay: PPAR-gamma transactivation assay (GAL4 chimera, luciferase reporter) in CV-1 cells
T1 sequence (P37231 1-505): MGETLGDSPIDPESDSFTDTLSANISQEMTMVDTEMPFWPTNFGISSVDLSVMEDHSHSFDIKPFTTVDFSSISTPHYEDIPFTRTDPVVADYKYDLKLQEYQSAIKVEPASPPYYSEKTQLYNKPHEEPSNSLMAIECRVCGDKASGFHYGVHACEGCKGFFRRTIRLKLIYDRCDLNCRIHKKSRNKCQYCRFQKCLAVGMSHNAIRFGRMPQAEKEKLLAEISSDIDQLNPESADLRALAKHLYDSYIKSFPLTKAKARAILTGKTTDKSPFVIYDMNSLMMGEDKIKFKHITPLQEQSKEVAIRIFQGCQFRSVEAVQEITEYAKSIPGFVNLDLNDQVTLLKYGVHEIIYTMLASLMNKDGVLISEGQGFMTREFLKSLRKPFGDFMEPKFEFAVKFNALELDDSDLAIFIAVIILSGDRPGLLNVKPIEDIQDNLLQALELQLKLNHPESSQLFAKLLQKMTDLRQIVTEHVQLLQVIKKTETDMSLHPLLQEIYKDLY
In short: (§1)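 CV-1 cells transiently transfected with murine or human PPAR-alpha, -gamma or -delta ligand-binding domain fused to GAL4 DNA-binding domain plus a GAL4-site luciferase reporter. After replating in phenol-red-free DME with 5% delipidated calf serum, cells were exposed to compound 20-24 h; luciferase read-out gave EC50.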

PPAR-alpha = target: T2, PPAR-alpha (UniProt Q07869); assay: PPAR-alpha transactivation assay (GAL4 chimera, luciferase reporter) in CV-1 cells
T2 sequence (Q07869 1-468): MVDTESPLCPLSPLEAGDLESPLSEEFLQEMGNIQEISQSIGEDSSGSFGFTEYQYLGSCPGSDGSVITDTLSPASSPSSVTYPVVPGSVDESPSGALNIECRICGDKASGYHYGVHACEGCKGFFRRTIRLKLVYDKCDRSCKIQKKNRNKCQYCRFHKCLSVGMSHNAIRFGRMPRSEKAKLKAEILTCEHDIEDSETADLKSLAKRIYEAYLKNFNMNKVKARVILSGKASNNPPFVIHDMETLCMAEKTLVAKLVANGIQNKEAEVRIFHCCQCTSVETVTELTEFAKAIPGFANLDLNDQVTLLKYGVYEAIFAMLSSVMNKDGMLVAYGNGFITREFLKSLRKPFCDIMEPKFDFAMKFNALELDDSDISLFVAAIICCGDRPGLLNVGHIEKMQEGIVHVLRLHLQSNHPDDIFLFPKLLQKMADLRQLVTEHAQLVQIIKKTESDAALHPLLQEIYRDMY
In short: as §1

PPAR-delta = target: T3, PPAR-delta (UniProt Q03181); assay: PPAR-delta transactivation assay (GAL4 chimera, luciferase reporter) in CV-1 cells
T3 sequence (Q03181 1-441): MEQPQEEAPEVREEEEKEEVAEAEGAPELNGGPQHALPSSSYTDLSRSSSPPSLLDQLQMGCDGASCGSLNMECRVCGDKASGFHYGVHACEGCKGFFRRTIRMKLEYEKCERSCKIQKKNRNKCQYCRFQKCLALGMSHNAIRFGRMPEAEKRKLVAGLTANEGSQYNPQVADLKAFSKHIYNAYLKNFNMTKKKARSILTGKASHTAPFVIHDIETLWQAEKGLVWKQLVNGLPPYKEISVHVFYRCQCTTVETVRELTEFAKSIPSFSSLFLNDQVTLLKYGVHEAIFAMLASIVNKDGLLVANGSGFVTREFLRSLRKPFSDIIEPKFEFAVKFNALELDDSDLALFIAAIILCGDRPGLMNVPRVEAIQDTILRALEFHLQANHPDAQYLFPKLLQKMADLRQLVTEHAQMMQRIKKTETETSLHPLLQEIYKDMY
In short: as §1

CC1(C)CN(c2ccc(C(F)(F)F)cn2)CCN1S(=O)(=O)c1ccc2c(c1)C(C(=O)O)CC2 (stereo not drawn) [Example 38, 6-[2,2-Dimethyl-4-(5-trifluoromethyl-pyridin-2-yl)-piperazine-1-sulfonyl]-indan-1-carboxylic acid]
EC50 (PPAR-gamma): < 5 µM | EC50 (PPAR-alpha): < 5 µM | EC50 (PPAR-delta): < 5 µM

COC(=O)[C@H]1CN(S(=O)(=O)c2ccc3c(c2)C(C(=O)O)CC3)CCN1c1ccc(C(F)(F)F)cn1 (stereo partly drawn) [Example 39, (R)-4-(3-Carboxy-indane-5-sulfonyl)-1-(5-trifluoromethyl-pyridin-2-yl)-piperazine-2-carboxylic acid methyl ester]
EC50 (PPAR-gamma): < 5 µM | EC50 (PPAR-alpha): < 5 µM | EC50 (PPAR-delta): < 5 µM

COC(=O)[C@@H]1CN(S(=O)(=O)c2ccc3c(c2)C(C(=O)O)CC3)CCN1c1ccc(C(F)(F)F)cn1 (stereo partly drawn) [Example 40, (S)-4-(3-carboxy-indane-5-sulfonyl)-1-(5-trifluoromethyl-pyridin-2-yl)-piperazine-2-carboxylic acid methyl ester]
EC50 (PPAR-gamma): < 5 µM | EC50 (PPAR-alpha): < 5 µM | EC50 (PPAR-delta): < 5 µM

O=C(O)Cc1csc2ccc(S(=O)(=O)N3CCN(c4ccc(C(F)(F)F)cc4)CC3)cc12 [Example 41, {5-[4-(4-trifluoromethyl-phenyl)-piperazine-1-sulfonyl]-benzo[b]thiophen-3-yl}-acetic acid]
EC50 (PPAR-gamma): 5 to 100 µM | EC50 (PPAR-alpha): 5 to 100 µM | EC50 (PPAR-delta): < 5 µM

CC1CN(c2ccc(C(F)(F)F)cn2)CCN1S(=O)(=O)c1ccc2scc(CC(=O)O)c2c1 (stereo not drawn) [Example 42, {5-[2-methyl-4-(5-trifluoromethyl-pyridin-2-yl)-piperazine-1-sulfonyl]-benzo[b]thiophen-3-yl}-acetic acid]
EC50 (PPAR-gamma): 5 to 100 µM | EC50 (PPAR-alpha): 5 to 100 µM | EC50 (PPAR-delta): < 5 µM

C[C@@H]1CN(c2ccc(C(F)(F)F)cn2)C[C@H](C)N1S(=O)(=O)c1ccc2scc(CC(=O)O)c2c1 [Example 43, {5-[2,6-dimethyl-4-(5-trifluoromethyl-pyridin-2-yl)-piperazine 1-sulfonyl]-benzo[b]thiophen-3-yl}-acetic acid]
EC50 (PPAR-gamma): 5 to 100 µM | EC50 (PPAR-alpha): > 100 µM | EC50 (PPAR-delta): < 5 µM

CC1CN(S(=O)(=O)c2ccc3scc(CC(=O)O)c3c2)C(C)CN1c1ccc(C(F)(F)F)cn1 (stereo not drawn) [Example 44, {5-[2,5-dimethyl-4-(5-trifluoromethyl-pyridin-2-yl)-piperazine-1-sulfonyl]-benzo[b]thiophen-3-yl}-acetic acid]
EC50 (PPAR-gamma): 5 to 100 µM | EC50 (PPAR-alpha): > 100 µM | EC50 (PPAR-delta): < 5 µM

O=C(O)C1CCc2ccc(S(=O)(=O)N3CCN(c4ccc(C(F)(F)F)cc4F)CC3)cc21 (stereo not drawn) [Example 45, 6-[4-(2-fluoro-4-trifluoromethyl-phenyl)-piperazine-1-sulfonyl]-indan-1-carboxylic acid]
EC50 (PPAR-gamma): < 5 µM | EC50 (PPAR-alpha): < 5 µM | EC50 (PPAR-delta): < 5 µM

O=C(O)C1CCc2ccc(S(=O)(=O)N3CCN(c4ccc(Cl)c(Cl)c4)CC3)cc21 (stereo not drawn) [Example 46, 6-[4-(3,4-dichloro-phenyl)-piperazine-1-sulfonyl]-indan-1-carboxylic acid]
EC50 (PPAR-gamma): < 5 µM | EC50 (PPAR-alpha): < 5 µM | EC50 (PPAR-delta): < 5 µM

O=C(O)Cc1csc2ccc(S(=O)(=O)N3CCN(c4ccc(C(F)(F)F)cc4F)CC3)cc12 [Example 47, {5-[4-(2-fluoro-4-trifluoromethyl-phenyl)-piperazine-1-sulfonyl]-benzo[b]thiophen-3-yl}-acetic acid]
EC50 (PPAR-gamma): < 5 µM | EC50 (PPAR-alpha): < 5 µM | EC50 (PPAR-delta): < 5 µM

O=C(O)Cc1csc2ccc(S(=O)(=O)N3CCN(c4ccc(C(F)(F)F)c(F)c4)CC3)cc12 [Example 48, {5-[4-(3-fluoro-4-trifluoromethyl-phenyl)-piperazine-1-sulfonyl]-benzo[b]thiophen-3-yl}-acetic acid]
EC50 (PPAR-gamma): < 5 µM | EC50 (PPAR-alpha): < 5 µM | EC50 (PPAR-delta): < 5 µM

C[C@@H]1CN(c2ccc(Cl)c(Cl)c2)C[C@H](C)N1S(=O)(=O)c1ccc2c(c1)C(C(=O)O)CC2 (stereo partly drawn) [Example 49, 6-[4-(3,4-dichloro-phenyl)-2,6-cis-dimethyl-piperazine-1-sulfonyl]-indan-1-carboxylic acid]
EC50 (PPAR-gamma): 5 to 100 µM | EC50 (PPAR-alpha): < 5 µM | EC50 (PPAR-delta): < 5 µM

C[C@@H]1CN(c2ccc(C(F)(F)F)c(Cl)c2)C[C@H](C)N1S(=O)(=O)c1ccc2c(c1)C(C(=O)O)CC2 (stereo partly drawn) [Example 50, 6-[4-(3-Chloro-4-trifluoromethyl-phenyl)-cis-2,6-dimethyl-piperazine-1-sulfonyl]-indan-1-carboxylic acid]
EC50 (PPAR-gamma): 5 to 100 µM | EC50 (PPAR-alpha): 5 to 100 µM | EC50 (PPAR-delta): < 5 µM

C[C@@H]1CN(c2ccc(OC(F)(F)F)cc2)C[C@H](C)N1S(=O)(=O)c1ccc2c(c1)C(C(=O)O)CC2 (stereo partly drawn) [Example 51, 6-[2,6-cis-dimethyl-4-(4-trifluoromethoxy-phenyl)-piperazine-1-sulfonyl]-indan-1-carboxylic acid]
EC50 (PPAR-gamma): 5 to 100 µM | EC50 (PPAR-alpha): < 5 µM | EC50 (PPAR-delta): < 5 µM

C[C@H]1CN(S(=O)(=O)c2ccc3c(c2)C(C(=O)O)CC3)CCN1c1ccc(Cl)c(Cl)c1 (stereo partly drawn) [Example 52, 6-[4-(3,4-dichloro-phenyl)-3-(S)-methyl-piperazine-1-sulfonyl]-indan-1-carboxylic acid]
EC50 (PPAR-gamma): < 5 µM | EC50 (PPAR-alpha): < 5 µM | EC50 (PPAR-delta): < 5 µM

C[C@H]1CN(S(=O)(=O)c2ccc3c(c2)C(C(=O)O)CC3)CCN1c1ccc(OC(F)(F)F)cc1 (stereo partly drawn) [Example 53, 6-[3-(S)-methyl-4-(4-trifluoromethoxy-phenyl)-piperazine-1-sulfonyl]-indan-1-carboxylic acid]
EC50 (PPAR-gamma): < 5 µM | EC50 (PPAR-alpha): < 5 µM | EC50 (PPAR-delta): < 5 µM

C[C@H]1CN(S(=O)(=O)c2ccc3c(c2)C(C(=O)O)CC3)CCN1c1ccc(C(F)(F)F)c(F)c1 (stereo partly drawn) [Example 54, 6-[4-(3-Fluoro-4-trifluoromethyl-phenyl)-3-(S)-Methyl-piperazine-1-sulfonyl]-indan-1-carboxylic acid]
EC50 (PPAR-gamma): < 5 µM | EC50 (PPAR-alpha): < 5 µM | EC50 (PPAR-delta): < 5 µM

C[C@H]1CN(S(=O)(=O)c2ccc3c(c2)C(C(=O)O)CC3)CCN1c1ccc(C(F)(F)F)cn1 (stereo partly drawn) [Example 55]
EC50 (PPAR-gamma): < 5 µM | EC50 (PPAR-alpha): < 5 µM | EC50 (PPAR-delta): < 5 µM

CCC1CN(c2ccc(C(F)(F)F)c(Cl)c2)CCN1S(=O)(=O)c1ccc2c(c1)C(C(=O)O)CC2 (stereo not drawn) [Example 56, 6-[4-(3-chloro-4-trifluoromethyl-phenyl)-2-ethyl-piperazine-1-sulfonyl]-indan-1carboxylic acid]
EC50 (PPAR-gamma): < 5 µM | EC50 (PPAR-alpha): < 5 µM | EC50 (PPAR-delta): < 5 µM

CCC1CN(c2ccc(OC(F)(F)F)cc2)CCN1S(=O)(=O)c1ccc2c(c1)C(C(=O)O)CC2 (stereo not drawn) [Example 57, 6-[2-ethyl-4-(4-trifluoromethoxy-phenyl)-piperazine-1-sulfonyl]-indan-1-carboxylic acid]
EC50 (PPAR-gamma): < 5 µM | EC50 (PPAR-alpha): < 5 µM | EC50 (PPAR-delta): < 5 µM

CCC1CN(c2ccc(Cl)c(Cl)c2)CCN1S(=O)(=O)c1ccc2c(c1)C(C(=O)O)CC2 (stereo not drawn) [Example 58, 6-[4-(3,4-Dichloro-phenyl)-2-ethyl-piperazine-1-sulfonyl]-indan-1-carboxylic acid]
EC50 (PPAR-gamma): 5 to 100 µM | EC50 (PPAR-alpha): < 5 µM | EC50 (PPAR-delta): < 5 µM

CCC1CN(c2ccc(C(F)(F)F)c(F)c2)CCN1S(=O)(=O)c1ccc2c(c1)C(C(=O)O)CC2 (stereo not drawn) [Example 59, 6-[2-Ethyl-4-(3-fluoro-4-trifluoromethyl-phenyl)-piperazine-1-sulfonyl]-indan-1-carboxylic acid]
EC50 (PPAR-gamma): 5 to 100 µM | EC50 (PPAR-alpha): < 5 µM | EC50 (PPAR-delta): < 5 µM
